Laboratory results taken from US10222370B2, “Screening assay for choice of prebiotic to prevent/treat gastrointestinal and systemic diseases” (Rush University Medical Center, priority 2014, dated 2019).

Tests used:
Format in all cases: cell-based, human
[1] = tested on: T84 monolayers co-cultured with CD3/28-activated PBMC; experiment: T84/PBMC co-culture, barrier integrity by transepithelial electrical resistance (TER); conditions: apical exposure, 24 h and 48 h, vs medium control
Method: (§1) The T84 cells are grown in DMEM/F-12 (1:1) supplemented with GlutaMAX®, 10% fetal bovine serum and […] penicillin/streptomycin. (T84 cells (human colorectal carcinoma cell line, ATCC® CCL-248™, Manassas, Va., USA). T84 cells were seeded in 12-well transwell insert filters (Coming Inc., NY, USA) and cultured in T84 cell medium for 3-4 weeks till co-culture with PBMC. Transepithelial electrical resistance (TER) was measured during culture, which generally increases to >1500 Ω×cm^2 and becomes stable after 3-4 weeks of culture. When TER was ≥2000 Ω×cm^2, T84 monolayers 14 were co-cultured with 1.5×10^6 PBMC 16 in the basolateral chamber.
(§2) The PBMC 16 for use in the co-cultures are isolated from 20 mL fresh blood from healthy controls (n=6) and subjects with food allergy (n=8) (Table 1). The average age of healthy controls was 36 (range 24-54) vs. 51 (range 26-74) for food allergic subjects (P>0.05). PBMC were isolated by density gradient centrifugation using lymphocyte separation medium according to manufacturer's protocol (Cellgro, Mediatec, Inc., Manassas, Va., USA). PBMC were collected in RPMI1640 supplemented with L-glutamine (Gibco), 2.5% fetal bovine serum, 1% penicillin/streptomycin and 1% sodium pyruvate (Sigma, St. Louis, Mo., USA) (PBMC medium) at 1×10^6 cell/mL.
(§3) T84/PBMC co-cultures were maintained in PBMC medium. PBMC were stimulated using CD3 and CD28 antibodies (clone OKT3 and CD28.2, 0.2 μg/mL; eBioscience, San Diego, Calif., USA) and simultaneously IEC were stimulated apically with Pam3CSK4, LPS or type C CpG oligonucleotide M362 (Invivogen, San Diego, Calif., USA) as previously described. Cultures were maintained at 37° C./5% CO2 for indicated time points.
(§4) The barrier integrity of T84 monolayers was assessed by measuring the TER and paracellular permeability to 4 kDa FITC-dextran. In short, TER was measured using a dual electrode system designed for cell culture insert analysis (EVOM; World Precision Instruments, Sarasota, Fla.) prior to co-culture and at indicated time points during co-culture. Data is reported as percentage of the initial TER value measured before co-culture. For assessment of permeability, T84 monolayers were separated from PBMC and cultured in PBMC medium for 1 h. The monolayers were then apically exposed to 1 mg/mL 4 kDa FITC-dextran (Sigma) and basolateral supernatants were collected after 60 min. FITC-dextran was measured at excitation wavelength 485 nm and emission wavelength 520 nm. The 4 kDa FITC-dextran flux was expressed as pmol/(h×cm^2).
In some experiments, PBMC are stimulated using antibodies against CD3 and CD28 and T84 cell monolayers were simultaneously exposed to synthetic TLR ligands or fermentation product 12 (co-culture of stool samples without or with different prebiotics). SCFA content (acetate, propionate and butyrate) in the fermentation products (“Fermenta”) 12 was analyzed by HPLC. TER was measured at t=0 h, t=4 h, t=18 h and t=24 h to monitor changes in the barrier integrity of the T84 monolayers. Non-limiting example of prebiotics include commercially available inulin and fructose oligosaccharides (FOS) that promote production of Butyrate by intestinal bacteria, galactose oligosaccharides (GOS) that promote growth of bifidobacteria in the intestine or prebiotics like resistant starch, corn arbionoxylan that promotes propionate. Other prebiotics may also be used.

[2] = tested on: PBMC; experiment: Cytokine production by CD3/28-activated PBMC in absence of T84 cells (ELISA); conditions: for IFN-γ / IL-6 / IL-8 / IL-10 / IL-13 / TNF-α: PBMC in absence of T84 cells, 24 h, mean ± SEM; for IL-10/IL-13 ratio: absence of T84 cells
Method: as §2, §3
(§5) Cytokine levels were measured by ELISA. IL-6, IL-8, IL-10, IL-13, IFN-γ and TNF-α were measured using the Ready-Set-Go!® ELISA kit from eBioscience according to manufacturer's protocol (eBioscience, Inc., San Diego, Calif., USA).
(§6) To evaluate whether epithelial TLR ligation modulates cytokine production by the PBMC, basolateral supernatants were collected 24 h after co-culture. Exposure of CD3/28-activated PBMC in the absence of IEC to TLR ligands served as a control to evaluate the contribution of IEC in modulating the cytokine production by PBMC. First we evaluated the production of IFN-γ and IL-13 as a reflection of a Th1 and Th2 type effector response (Table 3). No significant changes in the production of IFN-γ or IL-13 were observed, though IFN-γ production by the PBMC from food allergic subjects tended to be lower in T84/PBMC co-cultures (P=0.093). […] This was not observed when PBMC were stimulated with CpG DNA in absence of T84 cells (FIG. 7B).

[3] = tested on: T84/PBMC co-cultures; experiment: Cytokine production in T84/PBMC co-cultures with apical TLR ligands (ELISA); conditions: T84/PBMC, 24 h, mean ± SEM
Method: as §1, §2, §3, §5, §6

[4] = tested on: T84 monolayers co-cultured with CD3/28-activated PBMC; experiment: T84/PBMC co-culture, paracellular permeability to 4 kDa FITC-dextran; conditions: PBMC from healthy controls; 48 h co-culture; vs medium control
Method: as §1, §2
T84/PBMC co-cultures were maintained in PBMC medium. […]
as §4, with “For assessment of permeability, T84 monolayers were separated from PBMC and cultured in PBMC medium for 1 h. The monolayers were then apically exposed to 1 mg/mL 4 kDa FITC-dextran (Sigma) and basolateral supernatants were collected after 60 min.” left out

[5] = PBMC from food allergic subjects

## LPS
[1]; [5]
  TER of T84 monolayers: did not affect
[1]; PBMC from healthy controls
  TER of T84 monolayers: did not affect
[2]; FA
  IFN-γ: 2188 ± 908 pg/mL
  IL-6: 9909 ± 2073 pg/mL
  IL-8: 35682 ± 4770 pg/mL
  IL-10: 586 ± 159.4 pg/mL
  IL-13: 34.0 ± 10.7 pg/mL
  TNF-α: 945.4 ± 294 pg/mL
[2]; HC
  IFN-γ: 6070 ± 2282 pg/mL
  IL-6: 12399 ± 2174 pg/mL
  IL-8: 43034 ± 2960 pg/mL
  IL-10: 545.4 ± 134.7 pg/mL
  IL-13: 28.3 ± 8.7 pg/mL
  TNF-α: 2607 ± 1165 pg/mL
[2]; [5]
  IL-10/IL-13 ratio: increased
[2]; PBMC from healthy controls
  IL-10/IL-13 ratio: enhanced
[3]; FA (food allergy) PBMC
  IL-6: 7410 ± 2112 pg/mL
[3]; FA PBMC
  IFN-γ: 4390 ± 1700 pg/mL
  IL-8: 17103 ± 4334 pg/mL
  IL-10: 777.6 ± 163.2 pg/mL
  IL-13: 33.8 ± 11.0 pg/mL
  TNF-α: 2403 ± 516 pg/mL
[3]; HC (healthy control) PBMC
  IL-6: 9040 ± 2424 pg/mL
[3]; HC PBMC
  IFN-γ: 10392 ± 2967 pg/mL
  IL-8: 23124 ± 5683 pg/mL
  IL-10: 632.7 ± 125.1 pg/mL
  IL-13: 31.3 ± 9.1 pg/mL
  TNF-α: 2928 ± 712 pg/mL
[4]
  permeability of T84 monolayers to 4 kDa FITC-dextran: increased the permeability
